Results on two compounds are retold here after article PMC11091889, “Silver Organometallics that are Highly Potent Thioredoxin and Glutathione Reductase Inhibitors: Exploring the Correlations of Solution Chemistry with the Strong Antibacterial Effects” (ACS Infectious Diseases, 2024).

A value given as a limit tells only on which side of the number the result lay.

This series relates to Caco-2 cells. As to conditions: read-out: Cytotoxicity IC50 Caco-2; 24 h, almost confluent cell layers, highest concentration 100 μM. Here is the method:
Besides the antimicrobial effects, the toxic effects of silver ions have to be considered.[10],[12] As a primary evaluation of the cell toxicity triggered by silver NHC complexes, almost confluent cell layers of CaCo-2 cells were grown and challenged for 24 h with the silver complexes and also with the silver reference compounds AgNO3 and SSD (see Figure 6).
Caco-2 cells were grown as almost confluent monolayers in 96-well plates. The complexes were dissolved in wells of 96-well plates as stock solutions in DMSO (0.2% v/v) diluted with DMEM cell culture medium, which was supplemented with 10% fetal calf serum and 50 mg/L gentamicin. The cell layers were incubated with the drug containing media for 24 h at 37 °C/5% CO2 in an incubator. The cell viability was determined using crystal violet (0.02%) staining and was calculated as percentage of an untreated control. Results were obtained in three independent experiments.

With `COCCn1[c](=[Ag][I])n(Cc2ccccn2)c2ccccc21` [4c, Iodido (1-(2-Methoxyethyl)-3-(pyridin-2-ylmethyl)-benzimidazol-2-ylidene) Silver(I)], the IC50 was greater than 100 µM.

Take `CC(C)n1[c](=[Ag][I])n(Cc2ccccn2)c2ccccc21` [3c, Iodido (1-Isopropyl-3-(pyridin-2-ylmethyl)-benzimidazol-2-ylidene) Silver(I)]: the IC50 is greater than 100 µM.

What is called IC50 is the concentration that gives 50% inhibition.
